# Data as given in US11732286B2, “T5 exonuclease-based method to identify DNA topoisomerase inhibitors” (The Florida International University Board of Trustees, priority 2020, dated 2023).
# pIC50: −log10 of the molar value. “Also recorded” adds a separate entry of the source. Where a name gives a salt, the structure may show the parent alone. Read-outs that look alike come from different tables or passages of the source. Where a SMILES comes first, the peptide text is derived from it. Bridges are numbered along the chain shown (N, C = ends). [ ]: non-standard residue; d: D form. The star is where a group is joined. Octanoyl(6-Me) = CCC(C)CCCCC(=O)*; Dab = NCC[CH](N)C(=O)O
# Legend:
# [1] = molecular target: Mtb DNA topoisomerase I (Mycobacterium tuberculosis, UniProt P9WG49); format: biochemical; conditions: for screening result in words (Mtb topo I HTS): interpretation of Table 4
# Mtb DNA topoisomerase I, sequence (P9WG49 whole entry): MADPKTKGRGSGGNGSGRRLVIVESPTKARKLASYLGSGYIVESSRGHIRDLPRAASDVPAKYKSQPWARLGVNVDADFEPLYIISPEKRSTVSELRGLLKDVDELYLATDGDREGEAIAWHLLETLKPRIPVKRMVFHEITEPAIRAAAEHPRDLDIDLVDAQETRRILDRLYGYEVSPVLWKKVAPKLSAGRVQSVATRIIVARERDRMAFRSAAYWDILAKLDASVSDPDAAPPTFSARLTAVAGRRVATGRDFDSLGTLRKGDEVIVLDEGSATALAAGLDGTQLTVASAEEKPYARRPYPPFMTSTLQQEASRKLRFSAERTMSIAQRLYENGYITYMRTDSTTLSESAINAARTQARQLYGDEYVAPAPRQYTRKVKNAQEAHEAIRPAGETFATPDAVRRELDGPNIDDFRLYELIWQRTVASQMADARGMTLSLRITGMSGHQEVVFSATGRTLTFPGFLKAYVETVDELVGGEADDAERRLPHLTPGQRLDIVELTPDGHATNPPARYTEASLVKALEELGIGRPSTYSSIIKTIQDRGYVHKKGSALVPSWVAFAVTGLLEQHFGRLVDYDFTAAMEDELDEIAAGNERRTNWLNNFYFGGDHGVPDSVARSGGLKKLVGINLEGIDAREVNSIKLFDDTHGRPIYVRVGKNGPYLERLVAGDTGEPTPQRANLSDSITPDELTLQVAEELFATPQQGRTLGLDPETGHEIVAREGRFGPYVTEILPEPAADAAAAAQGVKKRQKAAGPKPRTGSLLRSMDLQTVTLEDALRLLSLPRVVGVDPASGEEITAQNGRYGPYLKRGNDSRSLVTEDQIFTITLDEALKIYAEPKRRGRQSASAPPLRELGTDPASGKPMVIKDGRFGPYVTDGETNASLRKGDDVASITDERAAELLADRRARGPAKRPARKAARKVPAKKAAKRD
# [2] = molecular target: E. coli DNA gyrase (Escherichia coli, UniProt P0AES4+P0AES6); format: biochemical; conditions: for result in words, pathogen box screen for E. coli DNA gyrase: 400 compounds, several rounds of screening; for hit call, gyrase HTS (FIG. 7): 20 μM, triplicate, Z′ 0.64, S/B 4.3
# E. coli DNA gyrase, sequence (P0AES4 whole entry, one chain of several): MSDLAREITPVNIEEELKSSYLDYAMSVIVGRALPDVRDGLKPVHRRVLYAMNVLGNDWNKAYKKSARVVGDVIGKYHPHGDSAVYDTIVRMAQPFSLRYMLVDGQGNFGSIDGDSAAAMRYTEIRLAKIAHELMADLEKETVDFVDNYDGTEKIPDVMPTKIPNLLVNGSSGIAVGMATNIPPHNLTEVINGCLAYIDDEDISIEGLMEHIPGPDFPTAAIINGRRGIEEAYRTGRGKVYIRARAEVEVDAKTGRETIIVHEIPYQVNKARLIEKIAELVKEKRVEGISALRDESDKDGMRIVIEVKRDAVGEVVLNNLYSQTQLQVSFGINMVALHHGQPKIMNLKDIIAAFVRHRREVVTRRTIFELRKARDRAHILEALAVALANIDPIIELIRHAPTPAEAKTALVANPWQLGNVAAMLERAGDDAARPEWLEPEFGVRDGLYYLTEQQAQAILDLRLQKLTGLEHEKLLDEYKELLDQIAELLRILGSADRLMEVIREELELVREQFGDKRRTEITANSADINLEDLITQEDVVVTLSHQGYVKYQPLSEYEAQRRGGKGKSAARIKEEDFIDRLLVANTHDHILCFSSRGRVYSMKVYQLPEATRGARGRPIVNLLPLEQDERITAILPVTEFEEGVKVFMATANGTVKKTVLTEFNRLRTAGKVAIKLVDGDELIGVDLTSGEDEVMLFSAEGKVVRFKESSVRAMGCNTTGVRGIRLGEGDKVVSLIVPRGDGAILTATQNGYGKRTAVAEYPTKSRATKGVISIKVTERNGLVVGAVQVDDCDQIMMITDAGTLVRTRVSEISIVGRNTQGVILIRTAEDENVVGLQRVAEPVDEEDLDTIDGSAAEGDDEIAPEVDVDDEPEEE
# [3] = molecular target: E. coli DNA topoisomerase I (Escherichia coli, UniProt P06612); format: biochemical; conditions: for screening result in words (E. coli topo I HTS): interpretation of Table 5 / FIG. 11
# E. coli DNA topoisomerase I, sequence (P06612 whole entry): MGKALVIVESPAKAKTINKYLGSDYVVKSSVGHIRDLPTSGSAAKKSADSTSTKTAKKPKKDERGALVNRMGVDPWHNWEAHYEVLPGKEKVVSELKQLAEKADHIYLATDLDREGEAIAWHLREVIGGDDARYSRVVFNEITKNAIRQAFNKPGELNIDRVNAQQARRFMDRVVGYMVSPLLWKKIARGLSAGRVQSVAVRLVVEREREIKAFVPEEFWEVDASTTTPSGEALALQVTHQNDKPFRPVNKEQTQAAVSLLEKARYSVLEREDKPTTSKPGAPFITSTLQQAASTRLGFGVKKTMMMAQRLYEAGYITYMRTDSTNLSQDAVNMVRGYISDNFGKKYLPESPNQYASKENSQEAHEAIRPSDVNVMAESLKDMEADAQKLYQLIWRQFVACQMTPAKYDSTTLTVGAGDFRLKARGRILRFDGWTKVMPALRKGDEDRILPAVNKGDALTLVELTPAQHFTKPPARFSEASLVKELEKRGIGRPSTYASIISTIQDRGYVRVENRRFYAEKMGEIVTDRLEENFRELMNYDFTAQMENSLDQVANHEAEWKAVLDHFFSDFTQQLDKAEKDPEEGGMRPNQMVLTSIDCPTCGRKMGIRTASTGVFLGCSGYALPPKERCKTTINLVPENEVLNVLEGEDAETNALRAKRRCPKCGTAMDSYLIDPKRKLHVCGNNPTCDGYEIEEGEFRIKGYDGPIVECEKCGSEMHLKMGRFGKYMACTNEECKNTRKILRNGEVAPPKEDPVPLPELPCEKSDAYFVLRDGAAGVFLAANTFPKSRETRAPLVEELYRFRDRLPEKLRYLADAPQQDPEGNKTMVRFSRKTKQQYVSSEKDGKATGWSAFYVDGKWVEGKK
# [4] = molecular target: variola virus DNA topoisomerase 1 (vTopI) (Variola virus, UniProt P32989); format: biochemical; conditions: for screening result in words (Variola topo I HTS): interpretation of Table 6
# variola virus DNA topoisomerase 1 (vTopI), sequence (P32989 whole entry, looked up): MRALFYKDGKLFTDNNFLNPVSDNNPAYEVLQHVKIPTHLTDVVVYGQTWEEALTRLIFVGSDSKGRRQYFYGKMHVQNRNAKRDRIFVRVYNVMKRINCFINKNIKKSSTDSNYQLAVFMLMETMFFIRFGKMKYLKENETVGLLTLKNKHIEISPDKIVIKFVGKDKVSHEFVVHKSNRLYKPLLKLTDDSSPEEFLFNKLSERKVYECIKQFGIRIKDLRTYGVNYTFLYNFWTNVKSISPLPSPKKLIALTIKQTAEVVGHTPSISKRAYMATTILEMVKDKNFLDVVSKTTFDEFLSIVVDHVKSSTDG
# [5] = molecular target: MtbTopI (Mycobacterium tuberculosis, UniProt P9WG49); assay: MtbTopI inhibition test of FIG. 14; format: biochemical
# MtbTopI, sequence (P9WG49 whole entry): as the sequence (P9WG49 whole entry) above
# [6] = molecular target: T1, human DNA topoisomerase I (HuTopI) (Homo sapiens, UniProt P11387); assay: Human TopI-catalyzed DNA relaxation of sc pAB1_FL905 (fluorescence, FIG. 14); format: biochemical; conditions: 25 nM huTopI, sc pAB1_FL905, λem=521 nm, λex=482 nm; read-out: IC50 for inhibition of HuTopI activities
# T1 sequence (P11387 1-765): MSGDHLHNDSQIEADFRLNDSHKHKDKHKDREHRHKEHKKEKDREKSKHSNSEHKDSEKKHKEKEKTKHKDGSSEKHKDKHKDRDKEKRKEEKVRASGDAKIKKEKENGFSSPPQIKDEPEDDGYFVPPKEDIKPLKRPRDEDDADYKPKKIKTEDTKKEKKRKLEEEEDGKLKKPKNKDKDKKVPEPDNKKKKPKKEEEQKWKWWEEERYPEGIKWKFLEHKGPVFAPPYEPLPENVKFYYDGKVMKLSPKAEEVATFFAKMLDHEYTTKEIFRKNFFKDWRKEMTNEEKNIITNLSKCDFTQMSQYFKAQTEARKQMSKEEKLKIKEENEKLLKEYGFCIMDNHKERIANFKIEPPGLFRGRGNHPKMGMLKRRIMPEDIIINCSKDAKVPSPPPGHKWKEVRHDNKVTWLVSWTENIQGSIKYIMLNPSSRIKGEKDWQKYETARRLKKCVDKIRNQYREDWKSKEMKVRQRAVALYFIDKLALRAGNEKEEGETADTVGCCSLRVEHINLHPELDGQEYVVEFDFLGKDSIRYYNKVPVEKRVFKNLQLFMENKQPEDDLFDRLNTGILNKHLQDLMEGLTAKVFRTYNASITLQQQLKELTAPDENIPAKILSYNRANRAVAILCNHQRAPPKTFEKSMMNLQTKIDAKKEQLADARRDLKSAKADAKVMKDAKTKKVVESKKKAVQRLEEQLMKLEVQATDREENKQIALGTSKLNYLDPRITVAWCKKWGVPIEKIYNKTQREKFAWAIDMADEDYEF
# [7] = test system: supercoiled plasmid pAB1; assay: T5 exonuclease-based HTS assay for DNA intercalators (sc pAB1, no topoisomerase)
compound,measurement,setting,value
O=C(O)c1cn(C2CC2)c2cc(N3CCNCC3)c(F)cc2c1=O [Ciprofloxacin],"fluorescence, HTS screening of 50-compound library for Mtb DNA topoisomerase 1 inhibitors",[1],1493
same,"fluorescence, HTS screening of 50-compound library for E. coli DNA gyrase inhibitors",[2],1803
same,"screening result in words (Table 2, gyrase HTS)",[2],DNA intercalators
same,"fluorescence, HTS screening of 50-compound library for E. coli DNA topoisomerase 1 inhibitors",[3],1191
CCN1CCN(c2cc3c(cc2F)c(=O)c(C(=O)O)cn3C2CC2)CC1 [Enrofloxacin],"screening result in words (Table 2, gyrase HTS)",[2]; interpretation of Table 2,DNA intercalators
same,screening result in words (Variola topo I HTS),[4],can inhibit Variola topo I
NCC(=O)O [Glycine],"fluorescence, HTS screening of 50-compound library for Mtb DNA topoisomerase 1 inhibitors",[1],1321
same,"fluorescence, HTS screening of 50-compound library for E. coli DNA gyrase inhibitors",[2],644
same,"fluorescence, HTS screening of 50-compound library for E. coli DNA topoisomerase 1 inhibitors",[3],1589
NCCCC[C@H](N)C(=O)O [L-lysine],"fluorescence, HTS screening of 50-compound library (Table 6; vTopI)",[4],1028
C[C@H]1COc2c(N3CCN(C)CC3)c(F)cc3c(=O)c(C(=O)O)cn1c23 [Levofloxacin],"screening result in words (Table 2, gyrase HTS)",[2]; interpretation of Table 2,DNA intercalators
same,"result in words, pathogen box screen for E. coli DNA gyrase",[2],inhibit E. coli DNA gyrase activities
CCn1cc(C(=O)O)c(=O)c2cc(F)c(N3CCNC(C)C3)c(F)c21 (centres unmarked) [Lomefloxacin],"screening result in words (Table 2, gyrase HTS)",[2]; interpretation of Table 2,DNA intercalators
NC(N)=Nc1ccc(-c2ccc(-c3ccc(N=C(N)N)cc3Cl)o2)c(Cl)c1 [MMV688179],"result in words, pathogen box screen for E. coli DNA gyrase",[2],inhibit E. coli DNA gyrase activities
CCCCCCCCOC(=O)c1cc(O)c(O)c(O)c1 [NSC97419],screening result in words (Mtb topo I HTS),[1],new Mtb DNA topI inhibitors; also recorded: can inhibit Mtb topo I
same,screening result in words (E. coli topo I HTS),[3],can inhibit E. coli topo I
same,screening result in words (Variola topo I HTS),[4],can inhibit Variola topo I
O=C1C=C(NCCc2cc(Br)c(O)c(Br)c2)C(=O)c2ncccc21 [NSC668394],screening result in words (Mtb topo I HTS),[1],new Mtb DNA topI inhibitors; also recorded: can inhibit Mtb topo I
same,inhibition of MtbTopI in words (FIG. 14B and D),[5],did not inhibit
same,pIC50,[6],5.30
same,screening result in words (E. coli topo I HTS),[3],new E. coli DNA Topo I inhibitor; also recorded: can inhibit E. coli topo I
CCn1cc(C(=O)O)c(=O)c2cc(F)c(N3CCNCC3)cc21 [Norfloxacin],"screening result in words (Table 2, gyrase HTS)",[2]; interpretation of Table 2,DNA intercalators
CCC(C)CCCCC(=O)NC(CCN)C(=O)NC(C(=O)NC(CCN)C(=O)NC1CCNC(=O)C(C(C)O)NC(=O)C(CCN)NC(=O)C(CCN)NC(=O)C(CC(C)C)NC(=O)C(Cc2ccccc2)NC(=O)C(CCN)NC1=O)C(C)O (centres unmarked) [Polymyxin B sulfate salt] ({Octanoyl(6-Me)}-[Dab]T[Dab][Dab][Dab]FL[Dab][Dab]T; lactam 4-C; configuration not given here),"fluorescence, HTS screening of 50-compound library (Table 6; vTopI)",[4],1744
CN[C@H](CC(C)C)C(=O)N[C@H]1C(=O)N[C@@H](CC(N)=O)C(=O)N[C@H]2C(=O)N[C@H]3C(=O)N[C@H](C(=O)N[C@H](C(=O)O)c4cc(O)cc(O)c4-c4cc3ccc4O)[C@H](O)c3ccc(c(Cl)c3)Oc3cc2cc(c3O[C@@H]2O[C@H](CO)[C@@H](O)[C@H](O)[C@H]2OC2C[C@](C)(N)[C@H](O)[C@H](C)O2)Oc2ccc(cc2Cl)[C@H]1O (some centres unmarked) [Vancomycin],"fluorescence, HTS screening of 50-compound library (Table 6; vTopI)",[4],1398
Cc1ncc(C[n+]2csc(CCO)c2C)c(N)n1 [Vitamine B1],"fluorescence, HTS screening of 50-compound library for Mtb DNA topoisomerase 1 inhibitors",[1],1224
same,"fluorescence, HTS screening of 50-compound library for E. coli DNA gyrase inhibitors",[2],467
same,"fluorescence, HTS screening of 50-compound library for E. coli DNA topoisomerase 1 inhibitors",[3],1441
CC[C@@]1(O)C(=O)OCc2c1cc1n(c2=O)Cc2cc3ccccc3nc2-1 [camptothecin],"fluorescence, HTS screening of 50-compound library (Table 6; vTopI)",[4],1712
CS[C@H]1SC[C@H]2C(=O)N(C)[C@@H](C(C)C)C(=O)OC[C@@H](NC(=O)c3cnc4ccccc4n3)C(=O)N[C@@H](C)C(=O)N(C)[C@@H]1C(=O)N(C)[C@@H](C(C)C)C(=O)OC[C@@H](NC(=O)c1cnc3ccccc3n1)C(=O)N[C@@H](C)C(=O)N2C [echinomycin],"hit call, gyrase HTS (FIG. 7)",[2],hits
same,"screening result in words (Table 2, gyrase HTS)",[2]; interpretation of Table 2,DNA intercalators
same,"fluorescence, HTS screening of 50-compound library (Table 6; vTopI)",[4],1238
CCOc1ccc2nc3cc(N)ccc3c(N)c2c1 [ethacridine],"hit call, gyrase HTS (FIG. 7)",[2],hits
same,"screening result in words (Table 2, gyrase HTS)",[2]; interpretation of Table 2,DNA intercalators
NC[C@H]1O[C@H](O[C@H]2[C@H](O)[C@@H](O[C@H]3O[C@H](CO)[C@@H](O)[C@H](N)[C@H]3O)[C@H](N)C[C@@H]2N)[C@H](O)[C@@H](O)[C@@H]1O [kanamycin],"fluorescence, HTS screening of 50-compound library for Mtb DNA topoisomerase 1 inhibitors",[1],1466
same,"fluorescence, HTS screening of 50-compound library for E. coli DNA gyrase inhibitors",[2],510
same,"fluorescence, HTS screening of 50-compound library for E. coli DNA topoisomerase 1 inhibitors",[3],1719
c1ccncc1 [pyridine],"fluorescence, HTS screening of 50-compound library for DNA intercalators",[7],218
same,"fluorescence, HTS screening of 50-compound library for Mtb DNA topoisomerase 1 inhibitors",[1],1380
same,"fluorescence, HTS screening of 50-compound library for E. coli DNA gyrase inhibitors",[2],568
same,"fluorescence, HTS screening of 50-compound library for E. coli DNA topoisomerase 1 inhibitors",[3],1339
Nc1ccc(S(N)(=O)=O)cc1 [sulfanilamide],"fluorescence, HTS screening of 50-compound library for Mtb DNA topoisomerase 1 inhibitors",[1],1523
same,"fluorescence, HTS screening of 50-compound library for E. coli DNA gyrase inhibitors",[2],558
same,"fluorescence, HTS screening of 50-compound library for E. coli DNA topoisomerase 1 inhibitors",[3],1426
Cc1ccc(C(=O)Nc2ccc(S(=O)(=O)O)c3cc(S(=O)(=O)O)cc(S(=O)(=O)O)c23)cc1NC(=O)c1cccc(NC(=O)Nc2cccc(C(=O)Nc3cc(C(=O)Nc4ccc(S(=O)(=O)O)c5cc(S(=O)(=O)O)cc(S(=O)(=O)O)c45)ccc3C)c2)c1 [suramin],screening result in words (Mtb topo I HTS),[1],can inhibit Mtb topo I
same,"hit call, gyrase HTS (FIG. 7)",[2],hits
same,"screening result in words (Table 2, gyrase HTS)",[2]; interpretation of Table 2,DNA intercalators
same,screening result in words (E. coli topo I HTS),[3],can inhibit E. coli topo I
same,screening result in words (Variola topo I HTS),[4],can inhibit Variola topo I
CC[C@@]1(O)C(=O)OCc2c1cc1n(c2=O)Cc2cc3c(CN(C)C)c(O)ccc3nc2-1 [topotecan],screening result in words (Mtb topo I HTS),[1],new Mtb DNA topI inhibitors; also recorded: can inhibit Mtb topo I
citrinin,"fluorescence, HTS screening of 50-compound library (Table 6; vTopI)",[4],1311
